# Assays:
# [1] = system: CEM-SS cells; test: Cytotoxicity in the HIV-1 assay (MTS cell viability); details: CEM-SS cells plus peptide only; peptide 10 micrograms per ml; MTS
# [2] = as above; details: human, CEM-SS cells (uninfected, cells plus peptide only)
# [3] = system: Interleukin-2 (IL-2); test: Th1/Th2 cytokine profiling assay: IL-2; format: cell-based, Balb/c mice; details: Ovalbumin-restimulated spleen cells; 10 micrograms per ml; 72 hours
# From the text: (§1) The Balb/c mice (originated in 1923, it is a popular strain and is used in many different research disciplines. Also classified as an inbred from the production of 20 or more successive brother-sister matings, the Balb/c mouse is albino and small in size) were immunized on Days 1, 15, and 29 with Ovalbumin (Ovalbumin is the main protein found in egg white, commonly used to stimulate an immunological reaction in test animals) in PBS (5 micrograms/injection). On day 50, spleens of the mice were harvested (3 weeks after last boost with Ovalbumin). Cells were cultured (2×10^5/well in triplicate) and incubated with culture medium or test peptide—10 micrograms per ml—for 30 min. Thereafter, additional Ovalbumin was added to the cells at 10 micrograms/ml for in vitro restimulation of the cells. 72 hours later, cell supernatants were harvested and assayed using the Becton Dickinson Mouse Th1/Th2 Cytokine CBA Kit.
# [4] = system: Interleukin-5 (IL-5); test: Th1/Th2 cytokine profiling assay: IL-5; format: cell-based, Balb/c mice; details: Ovalbumin-restimulated spleen cells; 10 micrograms per ml; 72 hours
# From the text: as §1
# [5] = system: TNF alpha; test: TNF alpha production assay (LPS-stimulated macrophages, ELISA); format: cell-based, human; details: 10 micrograms per ml, lipopolysaccharide 200 ng/ml, overnight
# From the text: Not stimulated macrophages served as negative background control.
# [6] = system: Interferon-γ (IFN-γ); test: Th1/Th2 cytokine profiling assay: IFN-γ; format: cell-based, Balb/c mice; details: Ovalbumin-restimulated spleen cells; 10 micrograms per ml; 72 hours
# From the text: as §1
# [7] = system: Human Peripheral Blood Mononuclear Cells (PBMC); test: B cell proliferation assay (SAC plus Interleukin-2, 3H-thymidine); format: cell-based; details: 10 micrograms per ml, 3H-thymidine incorporation
# [8] = system: Primary Human endothelial cells (HUVEC); test: Endothelial cell migration assay; format: cell-based; details: 10 micrograms per ml, 22 hours
# [9] = Cytotoxicity in the HBV assay (dye uptake cell viability); format: cell-based; details: human; HepG2-2.2.15 cells; test peptide 10 micrograms per ml; dye uptake assay (% cell control)
# [10] = system: MRSA; test: Methicillin Resistant Staphylococcus Aureus (MRSA) assay; format: cell-based; details: peptide 10 micrograms per ml, read visually
# [11] = system: Tumor Necrosis Factor-α (TNF-α); test: Th1/Th2 cytokine profiling assay: TNF-α; format: cell-based, Balb/c mice; details: Ovalbumin-restimulated spleen cells; 10 micrograms per ml; 72 hours
# From the text: as §1
# [12] = system: Pseudomonas aeruginosa; test: Pseudomonas aeruginosa assay; format: cell-based; details: peptide 10 micrograms per ml, read visually
# [13] = system: A549 cells; test: Propidium iodide cell cycle assay; format: cell-based, Human; details: 10 micrograms per ml, 24 hours, FACS
# [14] = system: Interleukin-4 (IL-4); test: Th1/Th2 cytokine profiling assay: IL-4; format: cell-based, Balb/c mice; details: Ovalbumin-restimulated spleen cells; 10 micrograms per ml; 72 hours
# From the text: as §1
# [15] = system: A549 cells; test: Apoptosis induction assay (Annexin-5); format: cell-based, Human; details: 24 hours exposure
# Method: Human A549 cells (carcinomic human alveolar basal epithelial cells) were utilized in the experiments employing the Annexin-5 apoptosis assay. […] Test peptide-micrograms per ml—were exposed for 24 hours to the A549 cells before they were analyzed for signs of apoptosis.
# [16] = system: Streptococcus pneumoniae; test: Streptococcus pneumoniae assay; format: cell-based; details: peptide 10 micrograms per ml, read visually
# From the text: Results from Streptococcus pneumoniae assay:
# [17] = system: hepatitis B virus (HBV) ayw strain in HepG2-2.2.15 cells; test: HBV experimental assay system (secreted HBV DNA, TaqMan PCR); format: cell-based; details: test peptide 10 micrograms per ml; six days; HBV DNA in supernatant
# [18] = Cytotoxicity testing in MRC-5 cells (CellTiter 96); details: human, MRC-5 cells (embryonal lung fibroblasts)
# [19] = system: Human Peripheral Blood Mononuclear Cells (PBMC); test: T cell proliferation assay (PHA, 3H-thymidine); format: cell-based; details: 10 micrograms per ml, 3H-thymidine incorporation
# [20] = system: A549 cells; test: Apoptosis prevention assay (C2 ceramide, Annexin-5); format: cell-based, Human; details: A549 cells pretreated 30 min, 10 micrograms per ml
# [21] = system: RAW 264.7 cells; test: Phagocytosis assay (Fluorescein-labeled Escherichia coli); format: cell-based, Mouse; details: 10 micrograms per ml, flow cytometry
# [22] = system: HCMV strain AD169; test: HCMV plaque reduction assay; format: cell-based; details: MRC-5 cells; peptide 10 micrograms per ml; 7-10 days
# From the text: Ganciclovir was used as positive control.
# [23] = system: HUVEC; test: Endothelial tube formation assay; format: cell-based, Human; details: 10 micrograms per ml, 20 hours
# From the text: Positive control was vehicle only.
compound,measurement,setting,value
"Cc1cn([C@H]2C[C@H](N=[N+]=[N-])[C@@H](CO)O2)c(=O)[nH]c1=O [AZT, reference compound]",% Cell viability,[1],97%
CC(C)C[C@H](NC(=O)[C@H](Cc1ccccc1)NC(=O)CNC(=O)CNC(=O)[C@@H](N)Cc1ccc(O)cc1)C(=O)N[C@@H](CCCNC(=N)N)C(=O)N[C@@H](CCCNC(=N)N)C(=O)N[C@@H](CCC(N)=O)C(=O)N[C@@H](Cc1ccccc1)C(=O)N[C@@H](CCCCN)C(=O)N[C@H](C(=O)N[C@H](C(=O)N[C@H](C(=O)O)[C@@H](C)O)C(C)C)C(C)C [Dynorphin B],viability at 10 micrograms per ml,[2],37%
same,% Cell viability,[1],toxic
same,IL-2 spleen cells (% of control),[3],134.2 % of control
same,IL-5 spleen cells; TH2 response (% of control),[4],82.0 % of control
same,% of LPS induction,[5],97.8%
same,IFNγ spleen cells; TH1 response (% of control),[6],73.9 % of control
same,% of SAC/IL2 induced control,[7],104.8%
same,% inhibition of migration,[8],57%
same,"viability at 144 h, 10 micrograms per ml",[9],89.7%
same,% inhibition,[10],0.0%
same,TNF-a spleen cells; TH1 response (% of control),[11],105.2 % of control
same,% inhibition,[12],0.0%
same,Cell cycle analysis G0/G1,[13],59.5
same,Cell cycle analysis G2/M,[13],8.3
same,Cell cycle analysis S,[13],32.2
same,IL-4 spleen cells; TH2 response (% of control),[14],208.2 % of control
same,% of induction,[15],1.2%
same,% inhibition,[16],100.0%
same,% inhibition of HBV replication in HEP G2 cells,[17],45.7%
same,viability at 144 h,[18],100%
same,% of PHA induced control,[19],107.1%
same,% prevention of ceramide induced apoptosis,[20],0.0%
same,% of control phagocytosis,[21],102.9%
same,% plaque reduction,[22],1.0%
same,% inhibition of tube formation,[23],11%

# — patent US20100273700A1, “USE OF A PEPTIDE AS A THERAPEUTIC AGENT” (priority 2007, published 2010)
